# Where two headings read alike, the source gives them in different places.
# Legend:
# [1] = system: T-type Ca^2+ channels (LVA Ca^2+ current) in DRG neurons; assay: LVA (T-type) Ca2+ current, whole-cell patch clamp, cultured small-diameter DRG neurons; type: cell-based, rat; details: for effect on S9SP-mediated T-type current inhibition: 1 μM S9SP
# Procedure: (§1) DRG neurons from adult male Sprague–Dawley rats (170–180 g) were dissociated as previously described ([13], [29]) and cultured in DMEM supplemented with GlutaMax I, 10% fetal calf serum, penicillin (50 U/ml), and streptomycin (50 μg/ml) on glass coverslips that were coated with poly-D-lysine for 2–5 days in a humidified incubator (37°C, 5% CO2). No growth factors were added to the culture media. HEK 293 cells were cultured in the same DMEM media; cells were passaged every 2 days. Human NK1 receptor (GenBank accession No. AY462098) complementary DNA (cDNA) was from the Missouri Science and Technology cDNA Resource Center. WtCaV3.1 (GenBank accession No. AF027984), wtCaV3.2 (GenBank accession No. AF051946), CaV3.1Q172H, and CaV3.2H191Q were kindly provided by Dr E. Perez-Reyes (University of Virginia). HEK293 cells were transfected using Lipofectamine 2000 (Invitrogen) according to the manufacturer's instructions. ST101 was synthesized in house; Z944 was from Toronto Research Chemicals; PTX was from Enzo Life Science; and FluoZin-3AM was from Life Technologies. All other chemicals were from Sigma.
# All recordings were made using Multiclamp 700B amplifier in combination with pCLAMP 10.4 software (Molecular Devices). Voltage-clamp recordings from DRG neurons were made using whole-cell patch clamp. The standard bath solution contained the following (in mM): 150 TEA-Cl; 2.5 CsCl; 2.5 CaCl2; 10 HEPES; 0.5 MgCl2; and 10 glucose (pH 7.4 adjusted with CsOH). The standard pipette solution contained the following (in mM): 110 CsCl; 3 MgCl2; 10 EGTA; 10 HEPES; 3 Mg-ATP; and 0.6 GTP (pH 7.4 adjusted with CsOH). The access resistance was typically within 4–8 MΩ. T-type calcium currents (LVA) were measured by 50 ms square voltage pulses to −40 mV from a holding potential of −90 mV. HVA currents were measured by 200 ms square voltage pulses to 0 mV from a holding potential of −90 mV.
# where y is the current inhibition; A1 and A2 are the maximum and minimum effects, respectively; x is the S9SP concentration; and nH is the Hill coefficient.
# [2] = system: intracellular zinc levels in DRG neurons; assay: Intracellular zinc imaging with FluoZin-3AM; type: cell-based, rat; details: for effect on zinc levels elevated by ZnPy: in the presence of 10 μM ZnPy
# Procedure: Changes in the intracellular zinc levels were evaluated using fluorescence imaging. DRG cultures were loaded with FluoZin-3AM (5 μM for 30 min at 37°C in the presence of 0.02% pluronic F-127). Cells were washed with extracellular bath solution composed of the following (in mM): 160 NaCl; 2.5 KCl; 2 CaCl2; 1 MgCl2; and 10 HEPES (pH 7.4 adjusted with NaOH); they were imaged using a Leica SP5 fluorescence imaging system assembled on a Leica DMI6000 microscope and illuminated with 488 nm light for 1200 ms (400 Hz) with a 2 s interval. Solutions were applied using a gravity perfusion system.
# CaV3.2 = target: T1, CaV3.2 (Homo sapiens, UniProt O95180); assay: Recombinant CaV3.2 current in HEK293 cells co-transfected with NK1 receptor, perforated patch; type: cell-based
# T1 construct: expressed in transfected cells; host or cells: HEK293 cells, transient transfection with Lipofectamine 2000; The CaV3.2 cDNA was a gift of Dr E. Perez-Reyes; The NK1 cDNA was from the Missouri S&T cDNA Resource Center
# Procedure: as §1
# In recordings from HEK 293 cells, amphotericin B-perforated patch-clamp technique was used ([13]). The pipette solution contained the following (in mM): 155 CsCl; 10 HEPES; 1 EGTA; and 4 MgCl2 supplemented with amphotericin B (250 μg/ml), pH 7.4 adjusted with CsOH. The bath solution was the same as for DRG neuron recordings. The access resistance was typically within 8–12 MΩ.
# In experiments with H2O2, 3% agar-salt (3 M KCl) bridges were used. Concentration dependence of CaV3.2 channel inhibition by zinc was fit to the two-component logistic function:
# where N0 is the total amount of zinc-binding sites, N0(max1) is the amount of high-affinity binding sites, N0(max2) is the amount of low-affinity binding sites, Imax is the maximal CaV3.2 peak current amplitude, IC50 is the [Zn^2+] necessary for half-maximal inhibition, and nH is the Hill coefficient. The concentration dependency of the S9SP effect was fit to the one-component logistic function: […]
# rat hind paw [3] = assay: Hargreaves test, paw withdrawal latency to noxious heat; type: in vivo; details: hind-paw injection 50 μl; 0.1–10 nmol/site; 8 min after injection
# Procedure: For measurement of thermal hyperalgesia, the change in the latency of hind-paw withdrawal in response to noxious heat was recorded using the Hargreaves’ plantar method (Ugo Basile) at 8 min after the hind-paw injection of drugs; the heat source was set to 25% of the maximal intensity.
# rat hind paw [4] = assay: BK-induced nocifensive behavior, pre-injection protocol; type: in vivo; details: pre-injection 50 μl; 1–10 nmol/site, 5 min before BK 10 nmol/site
# Procedure: Sprague–Dawley rats (body weight, 170–180 g) were grouped randomly and allowed to acclimate for at least 30 min in a transparent observation chamber before the experiment. Animals received a 50-μl intraplantar injection of ST101 (0.001–10 nmol/site), BK (10 nmol/site), RTG (1–10 nmol/site), Z944 (0.05–5 nmol/site), SP (0.5–5 nmol/site), or saline, respectively, into the right hind paw. For evaluation of the acute “spontaneous” pain, animals were video-recorded for 30 min after the injection and protective (“nocifensive”) behavior was analyzed as time spent licking, biting, lifting, and flinching the injected paw. The analyses were performed by an observer who was unaware of treatment allocations. In the pre-injection experiments, the right hind paw of the animal received a pre-injection of 50 μl Z944 (0.05–0.5 nmol/site), RTG (1–10 nmol/site), SP (0.5 nmol/site), Z944 (0.05–0.5 nmol/site)+RTG (1 nmol/site), or saline; 5 min later, on the same paw, the animal received a further 50-μl injection of BK (10 nmol/site) together with the pre-injection drug mix. Nocifensive behavior was analyzed as described earlier.
# The in vivo CaV3.2 knock-down was performed as described earlier ([3]) by using the same ODN sequences that were synthesized by SBS Genetech. AS ODNs had the following sequence: […]. The mismatch ODNs of the following sequence were used as a negative control: […]. The mismatch ODN was not complementary to any known nucleotide sequence. ODNs were reconstituted in saline before injection. ODNs (12.5 μg/rat in 10 μl of saline) or saline were injected intrathecally (i.t.) between the L5 and L6 dorsal spinous processes as described earlier ([3], [42]) under isoflurane anesthesia. The treatment was repeated twice daily for 4 days. The pain tests were performed on the next day after the last injection. After behavioral testing, animals were humanly sacrificed; lumbar DRGs were extracted and analyzed for the knock-down efficiency by comparing the Cacna1h mRNA levels in lumbar (L4 to L6) DRGs of the saline-injected, mismatch ODN-injected, and AS ODN-injected animals using RT-PCR. The same Cacna1h and Gapdh primers as in siRNA experiments were used for RT-PCR.
# T1 sequence (O95180 whole entry): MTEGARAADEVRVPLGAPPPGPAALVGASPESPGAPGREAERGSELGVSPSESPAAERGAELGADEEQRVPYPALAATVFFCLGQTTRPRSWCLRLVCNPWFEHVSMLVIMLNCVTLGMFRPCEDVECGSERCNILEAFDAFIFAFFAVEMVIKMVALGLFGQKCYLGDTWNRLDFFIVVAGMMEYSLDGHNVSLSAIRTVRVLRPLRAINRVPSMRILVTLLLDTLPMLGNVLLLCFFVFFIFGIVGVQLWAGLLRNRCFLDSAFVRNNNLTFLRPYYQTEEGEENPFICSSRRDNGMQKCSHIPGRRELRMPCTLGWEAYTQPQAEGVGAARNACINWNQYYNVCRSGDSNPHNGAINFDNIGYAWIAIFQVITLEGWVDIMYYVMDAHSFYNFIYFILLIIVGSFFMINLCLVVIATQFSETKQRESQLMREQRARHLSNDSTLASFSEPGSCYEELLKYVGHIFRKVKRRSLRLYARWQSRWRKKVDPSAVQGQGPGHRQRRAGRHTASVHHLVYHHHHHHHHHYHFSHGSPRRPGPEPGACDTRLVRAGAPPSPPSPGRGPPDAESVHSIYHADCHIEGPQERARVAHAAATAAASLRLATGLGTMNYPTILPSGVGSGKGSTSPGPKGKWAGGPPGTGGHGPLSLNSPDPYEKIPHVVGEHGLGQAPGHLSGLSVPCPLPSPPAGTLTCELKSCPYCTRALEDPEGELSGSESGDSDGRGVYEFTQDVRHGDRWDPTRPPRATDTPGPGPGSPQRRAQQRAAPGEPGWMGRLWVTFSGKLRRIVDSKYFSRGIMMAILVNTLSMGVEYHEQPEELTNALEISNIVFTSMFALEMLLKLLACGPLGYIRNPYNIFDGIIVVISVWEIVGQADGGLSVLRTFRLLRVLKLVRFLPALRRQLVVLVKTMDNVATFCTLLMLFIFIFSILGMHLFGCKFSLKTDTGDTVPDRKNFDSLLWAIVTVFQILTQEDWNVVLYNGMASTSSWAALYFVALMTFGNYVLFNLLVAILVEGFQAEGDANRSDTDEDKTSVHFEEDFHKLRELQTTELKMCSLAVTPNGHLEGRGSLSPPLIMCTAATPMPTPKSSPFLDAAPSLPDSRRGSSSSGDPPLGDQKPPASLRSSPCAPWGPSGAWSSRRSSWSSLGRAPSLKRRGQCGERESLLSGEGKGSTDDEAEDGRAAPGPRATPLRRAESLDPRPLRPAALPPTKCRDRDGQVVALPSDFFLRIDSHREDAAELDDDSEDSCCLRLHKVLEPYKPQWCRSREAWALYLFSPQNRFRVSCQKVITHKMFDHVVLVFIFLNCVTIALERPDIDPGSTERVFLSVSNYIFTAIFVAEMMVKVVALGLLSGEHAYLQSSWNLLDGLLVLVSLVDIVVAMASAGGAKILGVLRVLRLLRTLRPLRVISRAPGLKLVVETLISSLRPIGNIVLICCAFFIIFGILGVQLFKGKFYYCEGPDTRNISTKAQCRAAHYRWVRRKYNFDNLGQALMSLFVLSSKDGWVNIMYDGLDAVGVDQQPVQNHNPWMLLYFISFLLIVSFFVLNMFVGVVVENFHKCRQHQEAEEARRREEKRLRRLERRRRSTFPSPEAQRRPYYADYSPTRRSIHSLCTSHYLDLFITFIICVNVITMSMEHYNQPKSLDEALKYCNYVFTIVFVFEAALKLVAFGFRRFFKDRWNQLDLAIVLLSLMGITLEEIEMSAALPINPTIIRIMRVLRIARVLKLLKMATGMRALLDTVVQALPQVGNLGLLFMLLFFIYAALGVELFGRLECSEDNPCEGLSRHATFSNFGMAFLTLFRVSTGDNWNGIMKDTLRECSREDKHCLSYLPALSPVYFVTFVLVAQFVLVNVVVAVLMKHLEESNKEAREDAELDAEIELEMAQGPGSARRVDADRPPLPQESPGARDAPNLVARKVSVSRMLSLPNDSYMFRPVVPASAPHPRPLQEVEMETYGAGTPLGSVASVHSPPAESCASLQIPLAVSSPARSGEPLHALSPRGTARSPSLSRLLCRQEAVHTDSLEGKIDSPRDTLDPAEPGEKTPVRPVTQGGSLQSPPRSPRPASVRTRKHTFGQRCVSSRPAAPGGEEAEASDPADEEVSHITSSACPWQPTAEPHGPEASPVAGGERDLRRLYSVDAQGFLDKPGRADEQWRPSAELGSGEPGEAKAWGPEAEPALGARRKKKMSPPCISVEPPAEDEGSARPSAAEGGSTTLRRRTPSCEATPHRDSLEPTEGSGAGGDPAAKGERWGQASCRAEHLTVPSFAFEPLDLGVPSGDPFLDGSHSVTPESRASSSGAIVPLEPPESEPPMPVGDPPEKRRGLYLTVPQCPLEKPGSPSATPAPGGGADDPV
molecule,measurement,setting,value
"O[C@@H](CS)[C@@H](O)CS (racemic) [DTT, dithiothreitol]",effect on LVA current amplitude on its own,[1]; 1 mM,did not significantly affect
same,prevention of S9SP effect on LVA current when applied together,[1]; 1 mM DTT before and during 1 μM S9SP,rendered S9SP ineffective
same,reversal of S9SP-induced LVA current inhibition,[1]; 1 mM DTT in continued presence of 1 μM S9SP,completely reversed
same,reversal of antimycin A-induced LVA current inhibition,"[1]; 1 mM DTT, 1 μM antimycin A",completely reversed
same,reversal of H2O2-induced LVA current inhibition,"[1]; 1 mM DTT, 300 μM H2O2",reversed
same,effect on zinc levels elevated by ZnPy,[2]; 1 mM,did not alter the elevated zinc levels
"CN(C)CCCn1cc(C2=C(c3c[nH]c4ccccc34)C(=O)NC2=O)c2ccccc21 [BIM I, bisindolylmaleimide I]",effect on S9SP-mediated T-type current inhibition,"[1]; 200 nM, 20 min pretreatment",without a significant effect
"COc1ccccc1CN[C@H]1CCCN[C@H]1c1ccccc1.Cl.Cl [CP-99994, (2S,3S)-3-(2-Methoxybenzylamino)-2-phenylpiperidine dihydrochloride]",effect on S9SP-induced LVA current inhibition,"[1]; 3 μM, 30 min pre-incubation, co-applied with 1 μM S9SP",abolished the effect of S9SP
OO [H2O2],inhibition of LVA current,[1]; 300 μM bath application,~20%
same,effect on recombinant CaV3.2,CaV3.2; H2O2,inhibited
"COCC(=O)O[C@]1(CCN(C)CCCc2nc3ccccc3[nH]2)CCc2cc(F)ccc2[C@@H]1C(C)C [MIB, mibefradil]",sensitivity of LVA currents to inhibitor,[1]; 3 μM,sensitive
"CCOC(=O)Nc1ccc(NCc2ccc(F)cc2)cc1N [RTG, retigabine]",paw withdrawal latency on radiant heat exposure,rat hind paw [3],produced a similar effect
same,BK-induced nociception,rat hind paw [4],significantly attenuated
"CSCC[C@H](NC(=O)[C@H](CC(C)C)NC(=O)CN(C)C(=O)[C@H](Cc1ccccc1)NC(=O)[C@H](Cc1ccccc1)NC(=O)[C@H](CCC(N)=O)NC(=O)[C@H](CCC(N)=O)NC(=O)[C@@H]1CCCN1C(=O)[C@H](CCCCN)NC(=O)[C@@H]1CCCN1C(=O)[C@@H](N)CCCNC(=N)N)C(N)=O [S9SP, [Sar^9]-Substance P]","current amplitude in the presence of S9SP, % of basal value","CaV3.2; 1 μM S9SP, wtCaV3.2, mean ± SEM, n = 13, SEM",69.8% ± 6.8%
"c1ccc(CN(CCN(Cc2ccccn2)Cc2ccccn2)Cc2ccccn2)nc1 [TPEN, N,N,N′,N′-Tetrakis(2-pyridylmethyl)ethylenediamine]",reversal of S9SP-induced LVA current inhibition,"[1]; 10 μM TPEN bath application, still in the presence of 1 μM S9SP",completely reversed
same,effect on zinc levels elevated by ZnPy,[2]; 20 μM,completely reversed the increase in fluorescence
same,effect on SP- and H2O2-induced inhibitions of recombinant CaV3.2,CaV3.2,prevented
same,effect on CaV3.2 currents in control conditions,CaV3.2; 10 μM,only marginal augmentation
[Cl-].[Cl-].[Zn+2] [ZnCl2],inhibition of LVA current,"[1]; 750 nM, n = 9",~25%
same,intracellular zinc levels (FluoZin-3 fluorescence),[2]; 1.5 mM,large responses
same,maximal inhibition at the high-affinity site,CaV3.2; S9SP-treated cells (1 μM),44.1% ± 5.1%
same,IC50,"CaV3.2; after S9SP treatment, 1 μM S9SP in all ZnCl2 solutions, read-out: IC50(1), high-affinity site, zinc inhibition of CaV3.2",0.35 ± 0.25 nM
same,IC50,"CaV3.2; after S9SP treatment, 1 μM S9SP in all ZnCl2 solutions, read-out: IC50(2), low-affinity site, zinc inhibition of CaV3.2",923 ± 582 nM
same,maximal inhibition at the high-affinity site,CaV3.2; control cells,9.9% ± 11.3%
same,IC50,"CaV3.2; control conditions, two-component logistic fit, 6–12 experiments, read-out: IC50(1), high-affinity site, zinc inhibition of CaV3.2",0.25 nM
same,IC50,"CaV3.2; control conditions, two-component logistic fit, 6–12 experiments, read-out: IC50(2), low-affinity site, zinc inhibition of CaV3.2",495 ± 326 nM
CCCCCC[C@H]1C(=O)O[C@H](C)[C@H](NC(=O)c2cccc(NC=O)c2O)C(=O)O[C@@H](C)[C@@H]1OC(=O)CC(C)C [antimycin A],inhibition of LVA current,[1]; 1 μM,~25%
"Arg-Pro-Lys-Pro-Gln-Gln-Phe-Phe-Sar-Leu-Met[O2]-NH2 [S9M11SP, [Sar^9, Met(O2)^11]-Substance P]",LVA current inhibition,[1]; 1 μM,quantitatively similar to that of S9SP
pertussis toxin [PTX],effect on S9SP-mediated T-type current inhibition,[1]; 400 ng/ml overnight pre-treatment,completely abolished

# From PMC4971421, “Redox-Dependent Modulation of T-Type Ca^2+ Channels in Sensory Neurons Contributes to Acute Anti-Nociceptive Effect of Substance P” (Antioxidants & Redox Signaling, 2016)
